Data published in PubChem BioAssay AID652112 (The Scripps Research Institute Molecular Screening Center, 2013).

Target: Serine/threonine-protein phosphatase PP1-alpha catalytic subunit (Homo sapiens) (UniProt P62136)
Experiment: dose-dependent PP1 inhibition, physiologic substrate – biochemical, radiolabel, phosphorylase substrate, powder samples, orthogonal assay for PP1 inhibitor probe project, dose response (AID 652112)
Details: purified PP1, 32P/33P-phosphorylase dephosphorylation, scintillation

Serine/threonine-protein phosphatase PP1-alpha catalytic subunit (Homo sapiens), sequence (P62136 whole entry, looked up): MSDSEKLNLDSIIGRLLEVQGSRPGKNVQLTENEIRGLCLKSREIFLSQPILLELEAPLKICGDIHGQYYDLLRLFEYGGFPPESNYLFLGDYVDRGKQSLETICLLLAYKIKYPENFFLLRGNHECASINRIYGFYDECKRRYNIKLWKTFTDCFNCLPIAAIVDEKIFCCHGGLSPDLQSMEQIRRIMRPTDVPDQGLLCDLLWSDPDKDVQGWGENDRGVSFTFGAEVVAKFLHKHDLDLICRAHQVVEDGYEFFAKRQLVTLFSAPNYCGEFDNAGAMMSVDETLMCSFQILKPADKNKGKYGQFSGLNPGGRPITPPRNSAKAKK

Structure (SMILES)	IC50 [µM]
N#Cc1c(-c2ccc(Cl)cc2)cc(-c2cccs2)nc1SCC(=O)O	21.9
COc1ccc(NC(=O)C2C3CCC(O3)C2C(=O)O)c(OC)c1 (stereo not given)	18.9
CN1CCN(C(c2ccccn2)c2cc(Cl)c3cccnc3c2O)CC1 (stereo not given)	4.89
CCOC(=O)c1sc2nc3c(SCC(=O)O)cc(C(=O)c4cc(F)ccc4O)cn3c(=O)c2c1C	8.54
CCn1c2ccccc2c2cc(NC(=O)COC(=O)c3ccc(NC(=O)CC#N)cc3)ccc21	38
